Results reported in patent US7071355B2, “Compounds as anti-inflammatory, immunomodulatory and anti-proliferatory agents” (4 SC AG, priority 2002, dated 2006).

Biological target: human DHODH (Homo sapiens, UniProt Q02127)
Assay: Inhibition assay of DHODH activity
Type: biochemical
Conditions: recombinant human DHODH; 50 μM decyclo ubichinone, 100 μM dihydroorotate, 60 μM 2,6-dichloroindophenol; pH 8.0, 30° C.

human DHODH, sequence (Q02127 whole entry): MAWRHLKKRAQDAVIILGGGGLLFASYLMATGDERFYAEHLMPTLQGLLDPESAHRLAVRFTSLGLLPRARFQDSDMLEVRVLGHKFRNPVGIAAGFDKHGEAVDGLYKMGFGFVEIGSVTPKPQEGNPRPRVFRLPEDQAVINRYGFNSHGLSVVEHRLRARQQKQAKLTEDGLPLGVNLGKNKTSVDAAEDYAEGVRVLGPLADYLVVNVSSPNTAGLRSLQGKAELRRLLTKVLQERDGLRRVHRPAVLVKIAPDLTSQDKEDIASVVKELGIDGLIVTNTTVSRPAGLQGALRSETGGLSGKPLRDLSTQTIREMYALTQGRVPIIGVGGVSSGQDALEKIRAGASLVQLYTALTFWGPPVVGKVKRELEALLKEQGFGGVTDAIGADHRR

Row | SMILES | IC50 [nM]
1 | COc1cccc(-c2ccc(NC(=O)C3=C(C(=O)O)C(O)CC3)c(F)c2)c1 (centres unmarked) [Example 18, 2-(3-Fluoro-3′-methoxy-biphenyl-4-ylcarbamoyl)-5-hydroxy-cyclopent-1-enecarboxylic acid] | < 1000
2 | O=C(O)C1=C(C(=O)Nc2c(F)cc(-c3ccccc3F)cc2F)CCC1O (centres unmarked) [Example 12, 5-Hydroxy-2-(3,5,2′-trifluoro-biphenyl-4-ylcarbamoyl)-cyclopent-1-enecarboxylic acid] | < 1000
